Results on one compound are retold here after ChEMBL document CHEMBL1139383, “Carbonic anhydrase inhibitors. Comparison of chlorthalidone and indapamide X-ray crystal structures in adducts with isozyme II: when three water molecules and the keto-enol tautomerism make the difference” (J Med Chem, 2009).

For the test, the target named is Carbonic anhydrase 3 (Homo sapiens) (UniProt P07451).
Carbonic anhydrase 3 (Homo sapiens), sequence (P07451 whole entry): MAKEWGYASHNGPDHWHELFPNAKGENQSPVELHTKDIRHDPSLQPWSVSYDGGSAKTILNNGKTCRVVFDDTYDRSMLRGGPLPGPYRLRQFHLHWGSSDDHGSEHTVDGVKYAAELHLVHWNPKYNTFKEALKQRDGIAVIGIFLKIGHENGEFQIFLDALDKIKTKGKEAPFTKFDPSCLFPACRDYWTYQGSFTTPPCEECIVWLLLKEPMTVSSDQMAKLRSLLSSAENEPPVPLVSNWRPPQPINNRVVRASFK

Description: Inhibition of human recombinant CA3 by stopped flow CO2 hydration assay

Regarding `NS(=O)(=O)c1cc(C2(O)NC(=O)c3ccccc32)ccc1Cl` (stereo unspecified), the Ki came out at 11 µM.
